The results in this text go back to patent US20250381157A1, “ANTIMICROBIAL COMPOUNDS” (priority 2022, published 2025).

In one experiment the test system is bacteria in culture. Nature of the experiment: in vitro toxicity to bacteria in culture. In kind it is cell-based.
In a further experiment the target is T1, recombinant human HDAC6 (Homo sapiens, UniProt Q9UBN7).
T1 construct: purchased BPS 50006
T1 sequence (Q9UBN7 1-1215): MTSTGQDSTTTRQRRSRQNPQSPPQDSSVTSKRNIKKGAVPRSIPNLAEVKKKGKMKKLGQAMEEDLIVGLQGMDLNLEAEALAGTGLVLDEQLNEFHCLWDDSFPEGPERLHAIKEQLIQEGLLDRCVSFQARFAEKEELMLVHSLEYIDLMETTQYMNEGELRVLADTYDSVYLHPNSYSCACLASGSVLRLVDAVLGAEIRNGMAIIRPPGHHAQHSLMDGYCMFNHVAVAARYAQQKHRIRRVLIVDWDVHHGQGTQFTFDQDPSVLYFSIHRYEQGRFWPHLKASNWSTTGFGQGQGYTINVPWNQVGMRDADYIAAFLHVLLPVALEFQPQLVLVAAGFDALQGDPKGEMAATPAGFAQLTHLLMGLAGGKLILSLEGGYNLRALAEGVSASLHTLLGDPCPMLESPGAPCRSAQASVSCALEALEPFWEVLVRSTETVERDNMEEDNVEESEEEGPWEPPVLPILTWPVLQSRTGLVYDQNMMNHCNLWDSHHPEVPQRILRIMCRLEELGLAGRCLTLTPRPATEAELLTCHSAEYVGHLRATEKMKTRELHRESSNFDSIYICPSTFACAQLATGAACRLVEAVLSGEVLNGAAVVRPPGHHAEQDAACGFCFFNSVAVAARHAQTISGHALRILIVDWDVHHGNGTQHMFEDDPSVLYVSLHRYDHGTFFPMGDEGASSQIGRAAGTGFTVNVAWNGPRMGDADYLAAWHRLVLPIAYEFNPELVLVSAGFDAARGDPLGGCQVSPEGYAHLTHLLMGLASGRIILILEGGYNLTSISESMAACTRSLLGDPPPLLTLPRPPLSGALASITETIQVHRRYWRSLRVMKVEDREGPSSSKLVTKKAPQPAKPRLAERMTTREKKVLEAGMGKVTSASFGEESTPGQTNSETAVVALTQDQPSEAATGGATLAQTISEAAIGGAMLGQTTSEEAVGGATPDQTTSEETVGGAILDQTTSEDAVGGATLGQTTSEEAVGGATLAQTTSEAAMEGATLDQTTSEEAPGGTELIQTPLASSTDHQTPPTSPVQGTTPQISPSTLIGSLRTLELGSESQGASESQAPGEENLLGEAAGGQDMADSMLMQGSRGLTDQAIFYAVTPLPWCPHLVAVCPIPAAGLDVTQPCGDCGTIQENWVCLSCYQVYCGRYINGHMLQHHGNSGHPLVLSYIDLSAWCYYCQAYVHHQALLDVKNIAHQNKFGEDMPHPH
The experiment is described as follows: HDAC6 in-vitro enzymatic assay. Type of experiment: biochemical. The procedure:
The purpose of the study is to determine the effects of Compound 1 on the enzymatic activities of recombinant human HDAC1, HDAC2, HDAC3, HDAC4, HDAC5, HDAC6, HDAC7, HDAC8, and HDAC9 using in-vitro enzymatic assays.
All of the compounds were dissolved in DMSO. A series of dilutions of the compounds were prepared with 10% DMSO in HDAC assay buffer and 5 μl of the dilution was added to a 50 μl reaction so that the final concentration of DMSO was 1% in all of reactions. The compounds were pre-incubated in duplicate at RT for 30 minutes in a mixture containing HDAC assay buffer, 5 μg BSA, HDAC enzyme and a test compound. After 30 minutes, the enzymatic reactions were initiated by the addition of HDAC substrate to a final concentration of 20 μM or 2 μM. The enzymatic reaction proceeded for 30 minutes at 37° C. […] Fluorescence intensity was measured at an excitation of 360 nm and an emission of 460 nm using a Tecan Infinite M1000 microplate reader.
(§1) HDAC activity assays were performed in duplicates at each concentration. The fluorescent intensity data were analyzed using the computer software, Graphpad Prism. […] The percent activity in the presence of each compound was calculated according to the following equation: % activity=(F−Fb)/(Ft−Fb), where F=the fluorescent intensity in the presence of the compound. […] The IC50 value was determined by the concentration causing a half-maximal percent activity.

The target in the next experiment is T2, recombinant human HDAC4 (Homo sapiens, UniProt P56524).
T2 construct: purchased BPS 50004
The experiment is described as follows: HDAC4 in-vitro enzymatic assay. In kind it is biochemical. The protocol: (§2) All of the compounds were dissolved in DMSO. A series of dilutions of the compounds were prepared with 10% DMSO in HDAC assay buffer and 5 μl of the dilution was added to a 50 μl reaction so that the final concentration of DMSO was 1% in all of reactions. The compounds were pre-incubated in duplicate at RT for 30 minutes in a mixture containing HDAC assay buffer, 5 μg BSA, HDAC enzyme and a test compound. After 30 minutes, the enzymatic reactions were initiated by the addition of HDAC substrate to a final concentration of 20 μM or 2 μM. The enzymatic reaction proceeded for 30 minutes at 37° C. After enzymatic reactions, 50 μl of 2×HDAC Developer was added to each well for the HDAC enzymes and the plate was incubated at room temperature for an additional 15 minutes. Fluorescence intensity was measured at an excitation of 360 nm and an emission of 460 nm using a Tecan Infinite M1000 microplate reader.
as §1

The next experiment concerns the target T3, recombinant human HDAC2 (Homo sapiens, UniProt Q92769).
T3 construct: purchased BPS 50002
Nature of the experiment: biochemical. The protocol:
as §2, §1

The IC50 is the concentration that inhibits the measured activity by half.

Bounds are passed on as bounds.

T2 sequence (P56524 whole entry): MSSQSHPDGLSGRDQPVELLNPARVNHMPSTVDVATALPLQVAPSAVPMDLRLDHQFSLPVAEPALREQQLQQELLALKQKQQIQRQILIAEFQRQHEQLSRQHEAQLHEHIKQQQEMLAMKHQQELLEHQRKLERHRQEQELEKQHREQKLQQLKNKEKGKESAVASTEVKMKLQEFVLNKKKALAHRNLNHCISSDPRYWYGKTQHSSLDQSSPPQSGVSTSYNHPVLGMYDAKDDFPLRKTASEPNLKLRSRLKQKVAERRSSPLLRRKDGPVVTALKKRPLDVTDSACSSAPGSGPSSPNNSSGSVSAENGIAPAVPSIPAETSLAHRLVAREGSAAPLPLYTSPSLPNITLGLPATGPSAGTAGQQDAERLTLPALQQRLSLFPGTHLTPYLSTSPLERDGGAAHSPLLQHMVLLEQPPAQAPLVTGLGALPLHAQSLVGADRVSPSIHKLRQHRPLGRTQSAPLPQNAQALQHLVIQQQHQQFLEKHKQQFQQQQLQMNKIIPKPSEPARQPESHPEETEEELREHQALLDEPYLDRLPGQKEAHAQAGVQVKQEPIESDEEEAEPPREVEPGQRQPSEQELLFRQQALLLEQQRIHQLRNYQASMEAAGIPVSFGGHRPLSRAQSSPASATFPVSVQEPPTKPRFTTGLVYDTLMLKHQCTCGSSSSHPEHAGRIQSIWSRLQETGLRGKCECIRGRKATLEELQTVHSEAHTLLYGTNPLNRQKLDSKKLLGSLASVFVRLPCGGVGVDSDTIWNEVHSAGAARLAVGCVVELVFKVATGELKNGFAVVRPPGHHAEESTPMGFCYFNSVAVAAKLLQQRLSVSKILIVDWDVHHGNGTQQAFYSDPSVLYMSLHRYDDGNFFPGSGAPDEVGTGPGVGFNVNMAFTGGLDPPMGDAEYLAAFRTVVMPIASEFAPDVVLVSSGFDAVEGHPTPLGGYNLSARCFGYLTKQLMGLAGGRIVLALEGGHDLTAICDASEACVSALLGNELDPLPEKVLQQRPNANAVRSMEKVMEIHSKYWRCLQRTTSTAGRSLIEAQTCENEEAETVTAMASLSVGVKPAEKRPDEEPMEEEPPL
T3 sequence (Q92769 whole entry): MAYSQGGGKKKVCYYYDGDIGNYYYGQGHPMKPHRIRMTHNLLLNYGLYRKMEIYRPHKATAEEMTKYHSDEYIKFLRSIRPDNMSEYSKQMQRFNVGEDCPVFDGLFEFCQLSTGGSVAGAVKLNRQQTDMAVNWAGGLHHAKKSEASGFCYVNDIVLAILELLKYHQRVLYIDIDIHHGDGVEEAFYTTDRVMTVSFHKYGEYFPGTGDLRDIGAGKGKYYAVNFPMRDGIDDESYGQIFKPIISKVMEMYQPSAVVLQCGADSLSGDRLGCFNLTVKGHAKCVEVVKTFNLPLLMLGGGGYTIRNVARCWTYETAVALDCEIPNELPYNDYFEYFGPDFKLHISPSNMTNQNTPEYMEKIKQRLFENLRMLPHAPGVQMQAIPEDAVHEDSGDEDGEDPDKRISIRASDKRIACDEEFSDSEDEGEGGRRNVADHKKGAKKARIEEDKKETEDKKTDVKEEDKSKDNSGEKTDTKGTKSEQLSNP

Regarding `C#CCOCC(=O)Nc1ccc(C(=O)Nc2ccccc2N)cc1` [Compound 1, N-(2-aminophenyl)-4-{2-[(prop-2-yn-1-yl)oxy]acetamido}benzamide], the “toxicity to bacteria in culture” value in the experiment with bacteria in culture is “not toxic”. The IC50 was above 200 µM at recombinant human HDAC6, above 200 µM on recombinant human HDAC4 and around 1.2 µM on recombinant human HDAC2. Further, the “Inhib. HDAC6” value at recombinant human HDAC6 (@ 200 μM) was “No Inhib. @ 200 μM”. Further, the “Inhib. HDAC4” value at recombinant human HDAC4 (@ 200 μM) was “No Inhib. @ 200 μM”.
